Experimental data reported in paper PMC4703101 (Chemical research in toxicology, 2015).
Structures can show the parent of a compound that is named as a salt. Marks after values point to notes of the source that are not given here.

How the values were obtained:
[1] = Pharmacokinetics of plasma AαC and its metabolites after oral gavage of AαC; assay type: in vivo, mice (C57BL/6 background; WT, LCN, IECN); conditions: for AUC 0-24 h in plasma, fold greater in LCN mice than in WT mice / Cmax in plasma, fold greater in LCN mice than in WT mice / clearance rate, fold lower in LCN mice than in WT mice: for AαC also vs IECN; for CL/F / AUC(0-t) / Cmax / half-life / Tmax / AUC0-24h / t1/2 / AUC0-6h: plasma
Liver microsomal P450 [2] = experiment: Liver microsomal P450 oxidation; assay type: in vitro ADME, mouse; conditions: for P450 Oxidation: substrate 100 μM (AαC, PhIP, MeIQx), 10 μM (MROD), mean and SD, n ≥3, N.D. = not detected; for levels of metabolism, fold greater than AαC: 100 µM substrate
Liver microsomal P450 [3] = experiment: Liver microsomal P450 oxidation; assay type: in vitro ADME; conditions: Human liver microsome (H112); substrate 100 μM (AαC, PhIP, MeIQx), 10 μM (MROD)
Xanthine Dehydrogenase = Xanthine Dehydrogenase (Mus musculus, UniProt Q00519); experiment: Xanthine dehydrogenase assay, liver cytosol; assay type: in vitro ADME; conditions: WT and LCN liver cytosol
Xanthine Dehydrogenase, sequence (Q00519 whole entry): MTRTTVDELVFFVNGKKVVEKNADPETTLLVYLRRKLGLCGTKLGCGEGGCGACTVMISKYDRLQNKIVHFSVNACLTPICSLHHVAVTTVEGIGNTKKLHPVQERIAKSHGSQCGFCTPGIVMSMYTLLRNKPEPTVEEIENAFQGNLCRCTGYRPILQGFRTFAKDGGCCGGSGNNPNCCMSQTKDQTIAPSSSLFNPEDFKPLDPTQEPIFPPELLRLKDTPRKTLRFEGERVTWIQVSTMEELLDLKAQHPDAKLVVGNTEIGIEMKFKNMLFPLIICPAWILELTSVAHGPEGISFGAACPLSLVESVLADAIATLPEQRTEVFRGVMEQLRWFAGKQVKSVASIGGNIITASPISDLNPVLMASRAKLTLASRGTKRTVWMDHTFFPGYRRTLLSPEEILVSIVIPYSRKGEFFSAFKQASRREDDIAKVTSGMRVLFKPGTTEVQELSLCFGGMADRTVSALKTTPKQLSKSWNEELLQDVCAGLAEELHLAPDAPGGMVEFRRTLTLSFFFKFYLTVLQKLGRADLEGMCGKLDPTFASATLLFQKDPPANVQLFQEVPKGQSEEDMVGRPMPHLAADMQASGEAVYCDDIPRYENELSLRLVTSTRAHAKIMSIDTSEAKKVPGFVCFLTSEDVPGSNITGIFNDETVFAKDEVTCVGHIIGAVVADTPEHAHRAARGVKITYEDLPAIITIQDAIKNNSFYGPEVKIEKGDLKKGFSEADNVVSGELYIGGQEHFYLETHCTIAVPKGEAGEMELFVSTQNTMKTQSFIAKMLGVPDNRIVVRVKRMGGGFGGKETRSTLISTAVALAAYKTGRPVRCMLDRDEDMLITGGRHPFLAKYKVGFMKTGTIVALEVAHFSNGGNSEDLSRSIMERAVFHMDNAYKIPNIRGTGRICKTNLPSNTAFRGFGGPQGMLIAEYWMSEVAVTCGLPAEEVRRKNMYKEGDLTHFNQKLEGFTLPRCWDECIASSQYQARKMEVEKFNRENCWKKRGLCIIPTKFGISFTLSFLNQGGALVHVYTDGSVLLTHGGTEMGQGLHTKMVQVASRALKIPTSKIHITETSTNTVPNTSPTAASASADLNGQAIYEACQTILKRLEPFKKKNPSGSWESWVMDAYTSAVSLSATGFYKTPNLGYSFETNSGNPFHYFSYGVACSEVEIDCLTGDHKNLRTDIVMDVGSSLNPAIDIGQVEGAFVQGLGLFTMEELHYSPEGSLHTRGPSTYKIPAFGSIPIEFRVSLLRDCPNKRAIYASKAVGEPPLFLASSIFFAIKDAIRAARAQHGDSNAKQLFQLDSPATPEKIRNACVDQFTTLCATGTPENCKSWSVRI

Aldehyde Oxidase = experiment: Aldehyde oxidase assay, liver cytosol; conditions: WT and LCN liver cytosol
[4] = tested on: Flavin monooxygenase (FMO); experiment: Microsomal flavin monooxygenase; conditions: WT and LCN liver microsomes
DNA [5] = conditions: liver, kidney, colon, and mammary gland of female Cyp1a2-null mice; cited from earlier work
DNA [6] = conditions: cited from earlier work
P450 1A2 = conditions: human hepatocytes in primary culture pretreated with furafylline; cited from earlier work
[7] = IECN mice, AαC 13.6 mg/kg oral gavage, mean ± S.D. n=5
[8] = LCN mice, AαC 1.36 mg/kg oral gavage, mean ± S.D. n=5
[9] = LCN mice, AαC 13.6 mg/kg oral gavage, mean ± S.D. n=5
[10] = WT mice, AαC 1.36 mg/kg oral gavage, mean ± S.D. n=5
[11] = WT mice, AαC 13.6 mg/kg oral gavage, mean ± S.D. n=5

SMILES: Nc1ccc2c(n1)[nH]c1ccccc12 [AαC, 2-Amino-9H-pyrido[2,3-b]indole]
- AUC 0-24 h in plasma, fold greater in LCN mice than in WT mice ([1]; AαC 13.6 mg/kg oral gavage): about 20 fold
- Cmax in plasma, fold greater in LCN mice than in WT mice ([1]; AαC 13.6 mg/kg oral gavage): 10 fold
- clearance rate, fold lower in LCN mice than in WT mice ([1]; AαC 13.6 mg/kg oral gavage): 20 fold
- CL/F [1, 7]: 5920 ± 1530 mL/h
- CL/F [1, 8]: 884 ± 378^a ml/h
- CL/F [1, 9]: 335 ± 146^b ml/h
- CL/F [1, 10]: 15300 ± 5690 mL/h
- CL/F [1, 11]: 6900 ± 1850 mL/h
- AUC(0-t) ([1]; male, C57BL/6, mouse, po, 1.36 mg/kg, AUC0-6h, LCN mice, AαC 1.36 mg/kg oral gavage, mean ± S.D. n=5): 45.2 ± 16.9 ng·h/mL
- AUC(0-t) ([1]; male, C57BL/6, mouse, po, 1.36 mg/kg, AUC0-6h, WT mice, AαC 1.36 mg/kg oral gavage, mean ± S.D. n=5): 2.5 ± 1.3 ng·h/mL
- Cmax ([1]; male, C57BL/6, mouse, po, 1.36 mg/kg, Cmax, LCN mice, AαC 1.36 mg/kg oral gavage, mean ± S.D. n=5): 21.8 ± 13.6 ng/mL
- Cmax ([1]; male, C57BL/6, mouse, po, 1.36 mg/kg, Cmax, WT mice, AαC 1.36 mg/kg oral gavage, mean ± S.D. n=5): 1.4 ± 0.9 ng/mL
- half-life ([1]; male, C57BL/6, mouse, po, 1.36 mg/kg, t1/2, LCN mice, AαC 1.36 mg/kg oral gavage, mean ± S.D. n=5): 1.4 ± 0.5 h
- half-life ([1]; male, C57BL/6, mouse, po, 1.36 mg/kg, t1/2, WT mice, AαC 1.36 mg/kg oral gavage, mean ± S.D. n=5): 1.7 ± 0.9 h
- Tmax ([1]; male, C57BL/6, mouse, po, 13.6 mg/kg): 1 h
- AUC(0-t) ([1]; male, C57BL/6, mouse, po, 13.6 mg/kg, AUC0-24h, IECN mice, AαC 13.6 mg/kg oral gavage, mean ± S.D. n=5): 68.4 ± 18.2 ng·h/mL
- AUC(0-t) ([1]; male, C57BL/6, mouse, po, 13.6 mg/kg, AUC0-24h, LCN mice, AαC 13.6 mg/kg oral gavage, mean ± S.D. n=5): 1360 ± 595 ng·h/mL
- AUC(0-t) ([1]; male, C57BL/6, mouse, po, 13.6 mg/kg, AUC0-24h, WT mice, AαC 13.6 mg/kg oral gavage, mean ± S.D. n=5): 57.6 ± 14.2 ng·h/mL
- Cmax ([1]; male, C57BL/6, mouse, po, 13.6 mg/kg, Cmax, IECN mice, AαC 13.6 mg/kg oral gavage, mean ± S.D. n=5): 25.1 ± 12.4 ng/mL
- Cmax ([1]; male, C57BL/6, mouse, po, 13.6 mg/kg, Cmax, LCN mice, AαC 13.6 mg/kg oral gavage, mean ± S.D. n=5): 272 ± 85.9 ng/mL
- Cmax ([1]; male, C57BL/6, mouse, po, 13.6 mg/kg, Cmax, WT mice, AαC 13.6 mg/kg oral gavage, mean ± S.D. n=5): 26.5 ± 8.6 ng/mL
- half-life ([1]; male, C57BL/6, mouse, po, 13.6 mg/kg, t1/2, IECN mice, AαC 13.6 mg/kg oral gavage, mean ± S.D. n=5): 3.9 ± 2.2 h
- half-life ([1]; male, C57BL/6, mouse, po, 13.6 mg/kg, t1/2, LCN mice, AαC 13.6 mg/kg oral gavage, mean ± S.D. n=5): 2.8 ± 0.3 h
- half-life ([1]; male, C57BL/6, mouse, po, 13.6 mg/kg, t1/2, WT mice, AαC 13.6 mg/kg oral gavage, mean ± S.D. n=5): 3 ± 2.4 h
- P450 Oxidation (Liver microsomal P450 [2]; WT mouse liver microsomes): 103 ± 33 pmol/min/mg protein
- P450 Oxidation (Liver microsomal P450 [3]): 820 ± 60 pmol/min/mg protein
- AαC metabolism, if present (limit of detection by HPLC-UV) (Xanthine Dehydrogenase): < 50 pmol/min/mg protein
- AαC metabolism, if present (limit of detection by HPLC-UV) (Aldehyde Oxidase): < 50 pmol/min/mg protein
- AαC metabolism, if present (limit of detection by HPLC-UV) [4]: < 50 pmol/min/mg protein

SMILES: Nc1nc2[nH]c3ccccc3c2cc1OS(=O)(=O)O [AαC-3-OSO3H, 2-amino-9H-pyrido[2,3-b]indol-3-yl sulfate]
- Cmax, fold higher in LCN mice than in WT mice ([1]; AαC 1.36 mg/kg oral gavage): ~2 fold
- AUC 0-24 h in plasma, fold greater in LCN mice than in WT mice ([1]; AαC 13.6 mg/kg oral gavage): about 1.6 fold
- AUC0-24h [1, 7]: 5310 ± 1650 ng·h/mL
- CL/F [1, 7]: 77.0 ± 20.3^c ml/h
- Cmax [1, 7]: 913 ± 248 ng/mL
- Tmax [1, 7]: 1.8 ± 1.2 h
- t1/2 [1, 7]: 2.8 ± 0.2 h
- AUC0-6h [1, 8]: 438 ± 118^a h*ng/ml
- CL/F [1, 8]: 76.0 ± 39.2^b ml/h
- Cmax [1, 8]: 177 ± 73.0^a ng/ml
- Tmax [1, 8]: 1.0 ± 0 h
- t1/2 [1, 8]: 2.5 ± 1.7 h
- AUC0-24h [1, 9]: 6140 ± 1330^b h*ng/ml
- CL/F [1, 9]: 64.3 ± 13.6^a ml/h
- Cmax [1, 9]: 586 ± 128 ng/mL
- Tmax [1, 9]: 3.5 ± 2.3 h
- t1/2 [1, 9]: 3.1 ± 0.2 h
- AUC0-6h [1, 10]: 165.6 ± 47.6 ng·h/mL
- CL/F [1, 10]: 180 ± 140 mL/h
- Cmax [1, 10]: 74.6 ± 31.5 ng/mL
- Tmax [1, 10]: 1.0 ± 0 h
- t1/2 [1, 10]: 5.9 ± 6.1 h
- AUC0-24h [1, 11]: 3700 ± 911 ng·h/mL
- CL/F [1, 11]: 107 ± 27.9 mL/h
- Cmax [1, 11]: 669 ± 251 ng/mL
- Tmax [1, 11]: 1.8 ± 1.3 h
- t1/2 [1, 11]: 3.4 ± 1.2 h

SMILES: O=C(O)[C@H]1O[C@@H](Nc2ccc3c(n2)[nH]c2ccccc23)[C@H](O)[C@@H](O)[C@@H]1O [AαC-N^2-Glu, N^2-(β-1-glucosidurony1)-2-amino-9H-pyrido[2,3-b]indole]
- Cmax and AUC0-24h, fold higher in LCN than in WT mice ([1]; AαC 13.6 mg/kg by gavage, plasma (abstract)): 4-24 fold
- AUC 0-24 h in plasma, fold greater in LCN mice than in WT mice ([1]; AαC 13.6 mg/kg oral gavage): ~ 6 fold
- Cmax in plasma, fold greater in LCN mice than in WT mice ([1]; AαC 13.6 mg/kg oral gavage): 4.5 fold
- clearance rate, fold lower in LCN mice than in WT mice ([1]; AαC 13.6 mg/kg oral gavage): 6.6 fold
- AUC0-24h [1, 7]: 150 ± 30.0 ng·h/mL
- CL/F [1, 7]: 3180 ± 1031 mL/h
- Cmax [1, 7]: 42.4 ± 15.4 ng/mL
- Tmax [1, 7]: 1.8 ± 1.2 h
- t1/2 [1, 7]: 2.5 ± 2.2 h
- AUC0-6h [1, 8]: 195 ±78.7^a h*ng/ml
- CL/F [1, 8]: 207 ± 100^a ml/h
- Cmax [1, 8]: 74.3 ± 48.6^a ng/ml
- t1/2 [1, 8]: 1.5 ± 0.8 h
- AUC0-24h [1, 9]: 803 ± 241^a h*ng/ml
- CL/F [1, 9]: 543 ± 148^a ml/h
- Cmax [1, 9]: 186 ± 85.0^b ng/ml
- Tmax [1, 9]: 1.0 ± 0 h
- t1/2 [1, 9]: 2.1 ± 0.5 h
- AUC0-6h [1, 10]: 40.5 ± 16.6 ng·h/mL
- CL/F [1, 10]: 985 ± 372 mL/h
- Cmax [1, 10]: 19.2 ± 13.5 ng/mL
- t1/2 [1, 10]: 1.4 ± 0.7 h
- AUC0-24h [1, 11]: 128 ± 26.8 ng·h/mL
- CL/F [1, 11]: 3610 ± 566 mL/h
- Cmax [1, 11]: 40.2 ± 9.6 ng/mL
- Tmax [1, 11]: 1.0 ± 0 h
- t1/2 [1, 11]: 1.5 ± 0.7 h

SMILES: COc1ccc2nc3ccc(=O)cc-3oc2c1 [MROD, methoxyresorufin]
- MROD activity, fold decrease in LCN liver microsomes compared to WT microsomes (Liver microsomal P450 [2]): greater than 10 fold

SMILES: Cc1cnc2ccc3c(nc(N)n3C)c2n1 [MeIQx, 2-amino-3,8-dimethylimidaz[4,5-f]quinoxaline]
- P450 Oxidation (Liver microsomal P450 [2]; LCN mouse liver microsomes): 67 ± 44 pmol/min/mg protein
- levels of metabolism, fold greater than AαC (Liver microsomal P450 [2]; WT mouse liver microsomes): 3 to 4 fold
- P450 Oxidation (Liver microsomal P450 [2]; WT mouse liver microsomes): 404 ± 155 pmol/min/mg protein
- P450 Oxidation (Liver microsomal P450 [3]): 1010 ± 155 pmol/min/mg protein

SMILES: Cn1c(N)nc2ncc(-c3ccccc3)cc21 [PhIP, 2-amino-1-methyl-6-phenylimidazo[4,5-b]pyridine]
- levels of metabolism, fold greater than AαC (Liver microsomal P450 [2]; WT mouse liver microsomes): 3 to 4 fold
- P450 Oxidation (Liver microsomal P450 [2]; WT mouse liver microsomes): 362 ± 120 pmol/min/mg protein
- P450 Oxidation (Liver microsomal P450 [3]): 1440 ± 280 pmol/min/mg protein
- levels of DNA adducts in Cyp1a2-null vs WT mice (DNA [5]): ten-fold lower
- PhIP-DNA adduct levels in liver of RCN compared to WT mice (DNA [6]): unchanged

SMILES: Cc1nc2c([nH]1)c(=O)n(C)c(=O)n2Cc1ccco1 [furafylline]
- inhibition of dG-C8-AαC adduct formation (P450 1A2): only partially inhibited
